Consider 23 molecules from US6699877B2 (Gruenenthal GmbH, priority 2000, dated 2004).

One experiment concerns formalin-induced nociception. In words: Formalin test, rat (second/late phase). Type of experiment: in vivo. To be noted: i.p., 21.5 mg/kg, late phase. As to the method:
Experiments to determine the antinociceptive activity of the compounds according to the invention of Formula I were carried out in the formalin test on male rats (Sprague-Dawley, 150-170 g).
In the formalin test, the first (early) phase (0-15 min after formalin injection) was distinguished from the second (late) phase (15-60 min after formalin injection) (D. Dubuisson, S. G. Dennis, Pain 4, 161-174 (1977)). The early phase, as a direct reaction to the formalin injection, represents a model for acute pain while the late phase is considered as a model for persistent (chronic) pain (T. J. Coderre, J. Katz, A. L. Vaccarino, R. Melzack, Pain, Vol. 52, p. 259,1993).
The compounds according to the invention were investigated in the second phase of the formalin test to obtain information about the effects of substances in chronic/inflammatory pain.
A nociceptive reaction was induced in freely moving experimental animals by a single subcutaneous formalin injection (50 μl, 5%) into the dorsal side of the back right paw, the nociceptive reaction being portrayed by the following behavioral parameters: lifting and holding the respective paw (Score 1), shaking and twitching (Score 2), licking and biting (Score 3). The different behavioral patterns triggered by the formalin injection were recorded continuously by observing the animals in the late phase of the formalin test and were weighted differently in an evaluation. Normal behavior in which the animal loads all four paws uniformly was recorded as score 0. The moment of administration prior to the formalin injection was selected according to the method of administration of the compounds according to the invention (intraperitoneal: 15 min, intravenous: 5 min). The described behavioral patterns (Score 1 to 3) in the animals are reduced and possibly even eliminated after injection of substances which have an antinociceptive effect in the formalin test. A comparisom was made with control animals which had received vehicles (solvents) prior to formalin administration. The nociceptive behavior was calculated as a so-called pain rate (PR). The various behavioral parameters received a different weighting (Factor 0, 1, 2, 3). Calculation took place at partial intervals of 3 min according to the following formula:
Substance and vehicle groups include n=10 animals in each case. The effect of the substance was determined as a percentage change versus control on the basis of the PR calculations. The ED50 calculations were made by regression analysis.
On to `CCOC(=O)C1Nc2cc(Cl)cc(Cl)c2C2C=CCC12` (stereo not shown) [Example 1, 7,9-dichloro-3a,4,5,9b-tetrahydro-3H-cyclopenta[c]quinoline-4-carboxylic Acid Ethyl Ester], for which the “% inhibition of formalin-induced nociception” value was determined as 88.3%. The same measure, in the same setting: to `CCOC(=O)C1CC(c2ccc(Cl)cc2)c2c(Cl)cc(Cl)cc2N1` (stereo not shown) [Example 35, 5,7-dichloro-4-(4-chlorophenyl)-1,2,3,4-tetrahydroquinoline-2-carboxylic Acid Ethyl Ester] belongs 21.9%; to `CCOC(=O)C1CC(c2ccccc2Cl)c2c(Cl)cc(Cl)cc2N1` (stereo not shown) [Example 33, 5,7-dichloro-4-(2-chlorophenyl)-1,2,3,4-tetrahydroquinoline-2-carboxylic Acid Ethyl Ester], 69.0%.

Still in this experiment, the particulars now being: i.v., 21.5 mg/kg, late phase.
`O=C(O)C1Nc2ccc(Cl)cc2C2C=CCC12` (stereo not shown) [Example 4, 8-chloro-3a-4,5,9b-tetrahydro-3H-cyclo-penta[c]quinoline-4-carboxylic Acid]: the “% inhibition of formalin-induced nociception” value was found to be 67.1%.

A further experiment addresses T1, glycine binding site of the NMDA receptor channel (Rattus norvegicus, UniProt P35439).
T1 construct: from tissue; host or cells: rat brain cortex and hippocampus membrane homogenate
In words: Receptor binding, displacement of (3H)-MDL 105.519 on rat cerebral membrane homogenates. As to conditions: 10 μmol/l test substance; 1 nmol/l (3H)-MDL 105.519. As to the method:
Receptor Binding (Glycine Binding Site of the NMDA Receptor Channel)
Experiments to determine the affinity of the compounds according to the invention of Formula I to the glycine binding site of the NMDA receptor channel were carried out on cerebral membrane homogenates (homogenate of Cortex- and Hippocampus-Areal from the brain of male rats, Wistar strain) (B. M. Baron, B. W. Siegel, B. L. Harrison, R. S. Gross, C. and P. Towers, Journal of Pharmacology and Experimental Therapeutics, Vol. 279, p. 62, 1996).
For this purpose, Cortex and Hippocampus from freshly removed rats' brains were dissected, homogenized in 5 mmol/l TRIS-acetate buffer, 0.32 mol/l sacharose pH 7.4 (10 ml/g fresh weight) with a Potter homogenizer (made by Braun/Melsungen, 10 piston strokes at 500 rpm) while cooling with ice and subsequently centrifuged for 10 minutes at 1,000 g and 4° C. The first supernatant material was collected and the sediment homogenized again with […] TRIS-acetate buffer, 0.32 mol/l safcharose pH 7.4 (5 ml/g original fresh weight) using the Potter homogenizer (10 piston strokes at 500 rpm) while cooling with ice and centrifuged for 10 minutes at 1,000 g and 4° C. The resultant supernatant material was combined with the supernatant material from the first centrifugation and centrifuged at 17,000 g for 20 minutes at 4° C. The supernatant material after this centrifugation was discarded, the membrane sediment taken up with 5 mmol/l TRIS-acetate buffer pH 8.0 (20 ml/g original fresh weight) and homogenized with 10 piston strokes at 500 rpm.
The membrane homogenate was then incubated for 1 hour at 4° C. and centrifuged for 30 minutes at 50,000 g and 4° C. The supernatant material was discarded and the centrifuge tube with the membrane sediment sealed with parafilm and frozen for 24 hours at −20° C. The membrane sediment was thawed on the following day, taken up with ice-cold 5 mmol/l TRIS-acetate buffer, 0.1% saponin (w/v) pH 7.0 (10 ml/g original fresh weight), homogenized with 10 piston strokes at 500 rpm and subsequently centrifuged for 20 minutes at 50,00 g and 4° C. The resultant supernatant material was discarded, the sediment taken up in a small volume with 5 mmol/l TRIS-acetate buffer pH 7.0 (about 2 ml/g original fresh weight) and homogenized again with 10 piston strokes at 500 rpm. After determining the protein content, the membrane homogenate was adjusted to a protein concentration of 10 mg protein/ml using 5 mmol/l TRIS-acetate buffer pH 7.0 and frozen in aliquots for testing.
For the receptor binding test, aliquots were thawed, diluted 1:10 with 5 mmol/l TRIS-acetate buffer pH 7.0, homogenized with 10 piston strokes at 500 rpm using the potter homogenizer (10 piston strokes at 500 rpm) while cooling with ice and centrifuged for 60 minutes at 55,000 g at 4° C. The supernatant material was decanted, the membrane sediment adjusted to a protein concentration of 1 mg/ml with ice-cold 50 mmol/l TRIS-acetate buffer pH 7.0, homogenized again with 10 piston strokes at 500 rpm and kept in suspension in the ice bath while stirring on a magnetic stirrer. 100 μl of this membrane homogenate per 1 ml of feedstock was used in each case in the receptor binding test (0.1 mg protein/ml in the final batch).
In the binding test, 50 mmol/l TRIS-acetate buffer pH 7.0 was used as buffer and 1 nmol/l (^3H)-MDL 105.519 (B. M. Baron et al 1996) was used as radioactive ligand. The proportion of unspecific binding was determined in the presence of 1 mmol/l glycine.
In further batches, the compounds according to the invention were added in concentration series and the displacement of the radioactive ligand from its specific binding to the glycine binding site of the NMDA receptor channel determined. The respective triple batches were incubated for 120 minutes at 4° C. and then harvested to determine the radioactive ligands bound to the membrane homogenate by filtration through glass fiber filter mats (GF/B). […]
Regarding `O=C(O)C1CC(c2ccc(Cl)cc2)c2c(Cl)cc(Cl)cc2N1` (stereo not shown) [Example 99, 5,7-dichloro-4-(4-chlorophenyl)-1,2,3,4-tetrahydroquinoline-2-carboxylic acid], the “Displacement (%, 10 μmol/l) of radioactive ligand from specific binding” value is reported as 43%.

The same experiment, now with this note: 10 μmol/l test substance; 1 nmol/l (3H)-MDL 105.519; read-out: Displacement (%, 10 μmol/l) of radioactive ligand from specific binding.
As to `CCOC(=O)C1CC(c2ccc(Cl)cc2)c2c(Cl)cc(Cl)cc2N1` (stereo not shown) [Example 35, 5,7-dichloro-4-(4-chlorophenyl)-1,2,3,4-tetrahydroquinoline-2-carboxylic Acid Ethyl Ester], the inhibition at 10 µM was 32%. On the same count and under the same terms, for `CCOC(=O)C1CC(c2ccccc2Cl)c2c(Cl)cc(Cl)cc2N1` (stereo not shown) [Example 33, 5,7-dichloro-4-(2-chlorophenyl)-1,2,3,4-tetrahydroquinoline-2-carboxylic Acid Ethyl Ester] the value was 40%; for `O=C(O)C1CC(c2ccc(Br)cc2)c2cc(Cl)cc(F)c2N1` (stereo not shown) [Example 85, 4-(4-bromophenyl)-6-chloro-8-fluoro-1,2,3,4-tetrahydroquinoline-2-carboxylic acid], 61%. Same read-out and setting: to `CCOC(=O)C1Nc2cc(Cl)cc(Cl)c2C(c2ccccc2)C1C` (stereo not shown) [Example 42, 5,7-dichloro-3-methyl-4-phenyl-1,2,3,4-tetrahydroquinoline-2-carboxylic Acid Ethyl Ester] belongs 21%; to `COc1ccc(C2c3cc(C#N)ccc3NC(C(=O)O)C2c2ccc(OC)cc2)cc1` (stereo not shown) [Example 94, 6-cyano-3,4-bis-(4-methoxyphenyl)-1,2,3,4-tetrahydroquinoline-2-carboxylic acid], 55%. For `COc1cc(C2c3cc(SC)ccc3NC(C(=O)O)C2C)ccc1O` (stereo not shown) [Example 93, 4-(4-hydroxy-3-methoxyphenyl)-3-methyl-6-methylsulphanyl-1,2,3,4-tetrahydroquinoline-2-carboxylic acid], the inhibition at 10 µM came to 44%. Take `CCOC(=O)C1CC(c2ccccc2)c2c(Cl)cc(Cl)cc2N1` (stereo not shown) [Example 14, 5,7-dichloro-4-phenyl-1,2,3,4-tetrahydroquinoline-2-carboxylic Acid Ethyl Ester]: the inhibition at 10 µM worked out at 38%. Same read-out and setting: for `CCOC(=O)C1CC(c2ccccc2Br)c2cc(Cl)ccc2N1` (stereo not shown) [Example 54, 6-chloro-4-(2-bromophenyl)-1,2,3,4-tetrahydroquinoline-2-carboxylic Acid Ethyl Ester] the value was 22%. Consider `O=C(O)C1CC(c2ccccc2F)c2c(Cl)cc(Cl)cc2N1` (stereo not shown) [Example 27, 5,7-dichloro-4-(2-fluorophenyl)-1,2,3,4-tetrahydroquinoline-2-carboxylic Acid], for which the inhibition at 10 µM turned out to be 75%. The same measure, in the same setting: for `CCOC(=O)C1CC(c2ccccc2C)c2c(Cl)cc(Cl)cc2N1` (stereo not shown) [Example 16, 5,7-dichloro-4-o-tolyl-1,2,3,4-tetrahydroquinoline-2-carboxylic Acid Ethyl Ester] the value was 35%. Same read-out and setting: to `Cc1ccc(C2CC(C(=O)O)Nc3cc(Cl)cc(Cl)c32)cc1` (stereo not shown) [Example 20, 5,7-dichloro-4-p-tolyl-1,2,3,4-tetrahydroquinoline-2-Carboxylic Acid] belongs 61%; to `Cc1cc(C)cc(C2CC(C(=O)O)Nc3cc(Cl)cc(Cl)c32)c1` (stereo not shown) [Example 102, 5,7-dichloro-4-(3,5-dimethyl-phenyl)-1,2,3,4-tetrahydroquinoline-2-carboxylic acid], 61%. For the molecule `CCOC(=O)C1CC(c2cccc(F)c2)c2c(Cl)cc(Cl)cc2N1` (stereo not shown) [Example 28, 5,7-dichloro-4-(3-fluorophenyl)-1,2,3,4-tetrahydroquinoline-2-carboxylic Acid Ethyl Ester], the inhibition at 10 µM was found to be 35%. Turning to `CCOC(=O)C1CC(c2ccc(OCc3ccccc3)c(OC)c2)c2cc(C(C)(C)C)ccc2N1` (stereo not shown) [Example 96, 4-(4-benzyloxy-3-methoxyphenyl)-6-tert-butyl-1,2,3,4-tetrahydroquinoline-2-carboxylic acid ethyl ester], the inhibition at 10 µM came out at 29%. On the same count and under the same terms, to `CCOC(=O)C1Nc2c(Cl)cc(F)cc2C(c2ccc(OC)cc2)C1c1ccc(OC)cc1` (stereo not shown) [Example 95, 8-chloro-6-fluoro-3,4-bis-(4-methoxyphenyl)-1,2,3,4-tetrahydroquinoline-2-carboxylic acid ethyl ester] belongs 33%; to `CCOC(=O)C1CC(c2ccc(F)cc2)c2cc(Cl)ccc2N1` (stereo not shown) [Example 51, 6-chloro-4-(4-fluorophenyl)-1,2,3,4-tetrahydroquinoline-2-carboxylic Acid Ethyl Ester], 21%; to `CCOC(=O)C1CC(c2ccc(F)cc2)c2c(Cl)cc(Cl)cc2N1` (stereo not shown) [Example 30, 5,7-dichloro-4-(4-fluorophenyl)-1,2,3,4-tetrahydroquinoline-2-carboxylic Acid Ethyl Ester], 32%. Same read-out and setting: for `Cc1ccc(C2CC(C(=O)O)Nc3c(Cl)cc(Br)cc32)c(C)c1` (stereo not shown) [Example 91, 6-bromo-8-chloro-4-(2,4-dimethylphenyl)-1,2,3,4-tetrahydroquinoline-2-carboxylic acid] the value was 46%; for `CCOC(=O)C1CC(c2ccc(C)cc2)c2c(Cl)cc(Cl)cc2N1` (stereo not shown) [Example 19, 5,7-dichloro-4-p-tolyl-1,2,3,4-tetrahydroquinoline-2-carboxylic Acid Ethyl Ester], 26%; for `CCOC(=O)C1Nc2cc(Cl)cc(Cl)c2C2c3ccccc3CC12` (stereo not shown) [Example 61], 15%.
